From US20210161855A1, “5-LIPOXYGENASE ANTAGONISTS” (INSTITUTO DE MEDICINA MOLECULAR JOÃO LOBO ANTUNES, priority 2017, published 2021)

Key:
5-LO = target: T1, 5-LO (Homo sapiens, UniProt P09917); assay: 5-LO activity in neutrophil homogenates; assay type: biochemical; parameters: endogenous in cells; host or cells: neutrophils isolated from peripheral blood of healthy adult volunteers; intact or sonicated homogenates; conditions: neutrophil homogenates, with or without 1 mM DTT
T1 sequence (P09917 1-674): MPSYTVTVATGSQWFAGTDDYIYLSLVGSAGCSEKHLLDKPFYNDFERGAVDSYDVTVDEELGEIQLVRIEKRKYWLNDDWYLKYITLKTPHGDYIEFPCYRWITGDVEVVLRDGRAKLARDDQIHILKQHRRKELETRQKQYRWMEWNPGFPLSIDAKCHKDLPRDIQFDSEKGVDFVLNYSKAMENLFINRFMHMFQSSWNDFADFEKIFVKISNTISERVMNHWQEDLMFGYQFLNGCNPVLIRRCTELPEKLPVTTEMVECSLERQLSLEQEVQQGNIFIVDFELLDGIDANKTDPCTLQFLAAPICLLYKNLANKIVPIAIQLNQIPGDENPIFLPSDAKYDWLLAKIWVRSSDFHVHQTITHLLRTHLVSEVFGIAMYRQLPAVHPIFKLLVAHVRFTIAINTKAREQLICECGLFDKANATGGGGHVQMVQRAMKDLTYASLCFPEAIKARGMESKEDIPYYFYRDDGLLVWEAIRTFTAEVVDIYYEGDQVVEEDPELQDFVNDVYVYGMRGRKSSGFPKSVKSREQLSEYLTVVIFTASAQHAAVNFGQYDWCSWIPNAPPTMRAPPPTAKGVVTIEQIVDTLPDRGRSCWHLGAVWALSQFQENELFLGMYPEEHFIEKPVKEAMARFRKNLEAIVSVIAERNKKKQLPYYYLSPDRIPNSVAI
Method: Peripheral blood (University Hospital Jena, Germany) was withdrawn from healthy adult volunteers with consent that had not taken any anti-inflammatory drugs during the last 10 days, by venipuncture in heparinized tubes (16 IE heparin/mL blood). The blood was centrifuged at 4000 g for 20 min at 20° C. for preparation of leukocyte concentrates. Leukocyte concentrates were then subjected to dextran sedimentation and centrifugation on lymphocyte separation medium (LSM 1077, PAA, Colbe, Germany). Contaminating erythrocytes of pelleted neutrophils were removed by hypotonic Iysis. Neutrophils were then washed twice in ice-cold PBS and finally resuspended in PBS pH 7.4 containing 1 mg/mL glucose or in PBS pH 7.4 containing 1 mg/mL glucose plus 1 mM CaCl2 (PGC buffer) (purity>96-97%).
For analysis of 5-LO product formation in corresponding homogenates, neutrophils were resuspended in PBS containing 1 mM EDTA for 5 min at 4° C. and sonicated (4×10 s, 4° C.). Homogenates, corresponding to 5×10^6 cells/mL, were incubated with the test compounds or vehicle (0.1% DMSO) with or without 1 mM DTT for 15 min at 4° C., pre-warmed for 30 s at 37° C., and the reaction was started by the addition of 2 mM CaCl2 plus the indicated concentrations of AA (routinely 20 μM). The reaction was stopped after 10 min and the samples were analyzed as described for intact cells above.
Data are expressed as mean±S.E.M. IC50 values were calculated from averaged measurements at 6 different concentrations of the compound by nonlinear regression using GraphPad Prism software (San Diego, Calif.) one site binding competition. Statistical evaluation of the data was performed by one-way ANOVA followed by a Tukey-Kramer post-hoc test for multiple comparisons respectively. A p value<0.05 (*) was considered significant.

5-lipoxygenase (5-LO) = target: T2, 5-lipoxygenase (5-LO) (Homo sapiens, UniProt P09917); assay: 5-LO inhibition assay, Method A (Cerep), cell-free functional; assay type: biochemical; conditions: 150 μM; read-out: 5-LO inhibition at the assayed concentration
T2 sequence (P09917 1-674): T1 sequence (P09917 1-674)
Method: Method A: 5-Lipoxygenase (5-LO), 12-lipoxygenase (12-LO) and 15-lipoxygenase-2 (15-LO-2) inhibition assays were performed at Cerep, SA (Celle l'Evescault, France) on a fee-for-service basis (Ref 0772^36, 0883^37 and 0893^38, respectively), as described in Table 1.

EP3 = target: T3, EP3 (Homo sapiens, UniProt P43115); assay: Prostanoid EP3 receptor antagonism, functional assay; assay type: cell-based; conditions: 150 μM
T3 sequence (P43115 1-390): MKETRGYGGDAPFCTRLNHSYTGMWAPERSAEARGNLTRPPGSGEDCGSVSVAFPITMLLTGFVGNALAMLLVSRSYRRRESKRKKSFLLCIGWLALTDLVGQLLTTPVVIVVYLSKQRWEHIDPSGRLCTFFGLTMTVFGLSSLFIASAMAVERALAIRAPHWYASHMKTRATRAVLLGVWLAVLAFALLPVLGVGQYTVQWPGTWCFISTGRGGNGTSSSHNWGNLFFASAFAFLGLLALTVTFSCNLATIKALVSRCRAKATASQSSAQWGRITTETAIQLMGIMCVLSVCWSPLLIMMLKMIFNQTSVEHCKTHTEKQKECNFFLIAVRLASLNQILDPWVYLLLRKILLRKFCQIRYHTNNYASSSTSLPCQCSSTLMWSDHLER

EP4 = EP4 (Homo sapiens, UniProt P35408); assay: Prostanoid EP4 receptor antagonism, functional assay; assay type: cell-based; conditions: 150 μM
EP4, sequence (P35408 whole entry): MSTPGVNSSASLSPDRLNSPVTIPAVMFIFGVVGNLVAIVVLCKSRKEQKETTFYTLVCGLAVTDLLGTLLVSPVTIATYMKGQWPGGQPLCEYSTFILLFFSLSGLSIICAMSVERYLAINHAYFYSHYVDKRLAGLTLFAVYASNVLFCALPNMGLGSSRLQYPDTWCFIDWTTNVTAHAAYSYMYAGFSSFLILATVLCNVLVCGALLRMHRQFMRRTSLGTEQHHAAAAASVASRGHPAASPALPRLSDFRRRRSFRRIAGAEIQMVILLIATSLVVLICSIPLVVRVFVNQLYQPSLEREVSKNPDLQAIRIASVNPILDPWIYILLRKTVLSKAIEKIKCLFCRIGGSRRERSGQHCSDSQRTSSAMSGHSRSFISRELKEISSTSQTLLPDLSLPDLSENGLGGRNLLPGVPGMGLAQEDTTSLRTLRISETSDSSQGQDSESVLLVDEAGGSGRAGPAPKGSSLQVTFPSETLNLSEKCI

TRPV1 = TRPV1 (Homo sapiens, UniProt Q8NER1); assay: TRPV1 channel antagonism, functional assay; assay type: cell-based; conditions: 150 μM
TRPV1, sequence (Q8NER1 whole entry, species assumed): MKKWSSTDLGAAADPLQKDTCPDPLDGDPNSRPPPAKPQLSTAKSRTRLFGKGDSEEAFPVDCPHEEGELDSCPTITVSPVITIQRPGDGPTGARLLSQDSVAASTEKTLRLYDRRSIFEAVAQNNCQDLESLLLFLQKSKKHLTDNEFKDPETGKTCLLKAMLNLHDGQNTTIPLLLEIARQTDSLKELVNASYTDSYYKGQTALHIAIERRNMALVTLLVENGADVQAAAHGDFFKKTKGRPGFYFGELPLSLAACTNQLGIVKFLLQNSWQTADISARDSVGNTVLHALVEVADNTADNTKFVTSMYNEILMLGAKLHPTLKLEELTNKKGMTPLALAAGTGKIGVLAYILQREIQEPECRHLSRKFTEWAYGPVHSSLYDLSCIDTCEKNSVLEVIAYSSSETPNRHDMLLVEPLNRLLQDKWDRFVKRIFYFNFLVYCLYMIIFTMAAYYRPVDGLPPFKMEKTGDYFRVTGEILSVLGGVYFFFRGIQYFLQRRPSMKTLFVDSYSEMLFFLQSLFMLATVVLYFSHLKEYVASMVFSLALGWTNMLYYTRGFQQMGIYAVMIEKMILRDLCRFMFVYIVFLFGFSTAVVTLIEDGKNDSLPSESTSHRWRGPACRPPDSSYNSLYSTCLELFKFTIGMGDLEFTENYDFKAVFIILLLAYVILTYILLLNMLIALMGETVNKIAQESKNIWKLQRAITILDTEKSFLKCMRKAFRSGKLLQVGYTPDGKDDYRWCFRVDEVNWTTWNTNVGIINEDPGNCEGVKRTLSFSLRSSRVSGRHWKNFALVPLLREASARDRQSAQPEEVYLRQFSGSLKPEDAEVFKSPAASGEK

TRPM8 = TRPM8 (Homo sapiens, UniProt Q7Z2W7); assay: TRPM8 channel antagonism, functional assay; assay type: cell-based; conditions: 150 μM
TRPM8, sequence (Q7Z2W7 whole entry, species assumed): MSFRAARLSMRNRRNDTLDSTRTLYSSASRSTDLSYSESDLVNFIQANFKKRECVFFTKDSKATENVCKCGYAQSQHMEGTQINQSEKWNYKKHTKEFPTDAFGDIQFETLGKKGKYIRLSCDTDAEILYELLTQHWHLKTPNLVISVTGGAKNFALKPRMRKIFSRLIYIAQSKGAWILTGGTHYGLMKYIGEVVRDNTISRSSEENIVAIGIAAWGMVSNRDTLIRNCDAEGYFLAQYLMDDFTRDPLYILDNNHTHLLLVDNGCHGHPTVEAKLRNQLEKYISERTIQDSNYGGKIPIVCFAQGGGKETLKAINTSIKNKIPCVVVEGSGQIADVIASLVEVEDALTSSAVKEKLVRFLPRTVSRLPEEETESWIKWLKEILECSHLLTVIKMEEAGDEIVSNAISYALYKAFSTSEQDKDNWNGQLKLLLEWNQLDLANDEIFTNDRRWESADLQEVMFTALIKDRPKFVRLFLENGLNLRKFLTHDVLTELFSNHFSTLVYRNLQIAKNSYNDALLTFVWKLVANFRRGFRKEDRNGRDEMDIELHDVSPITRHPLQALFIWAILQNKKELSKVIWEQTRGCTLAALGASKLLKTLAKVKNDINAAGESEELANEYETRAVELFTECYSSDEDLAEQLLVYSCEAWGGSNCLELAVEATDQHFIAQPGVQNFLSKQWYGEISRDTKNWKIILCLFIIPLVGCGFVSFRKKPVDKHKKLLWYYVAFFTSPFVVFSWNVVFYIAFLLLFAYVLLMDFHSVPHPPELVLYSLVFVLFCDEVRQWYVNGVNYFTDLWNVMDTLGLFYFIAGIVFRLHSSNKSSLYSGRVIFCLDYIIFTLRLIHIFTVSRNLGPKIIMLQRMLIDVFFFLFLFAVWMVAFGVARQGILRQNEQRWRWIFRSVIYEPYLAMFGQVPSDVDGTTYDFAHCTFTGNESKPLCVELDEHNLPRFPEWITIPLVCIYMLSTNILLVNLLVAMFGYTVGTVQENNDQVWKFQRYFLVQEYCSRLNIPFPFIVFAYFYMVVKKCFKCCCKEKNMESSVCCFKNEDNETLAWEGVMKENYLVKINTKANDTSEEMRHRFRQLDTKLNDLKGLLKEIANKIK

SMILES: CC(c1cc2ccccc2s1)N(O)C(N)=O (stereo not drawn) [zileuton, reference compound]
- Dependence of inhibition on DTT (5-LO): independent of DTT

SMILES: CC(C)=CCC1=C(O)C(=O)c2ccccc2C1=O [Compound 2, 2-hydroxy-3-(3′-methyl-2′-butenyl)-1,4-naphthoquinone]
- inhibition at 150 µM (5-lipoxygenase (5-LO)): 87%
- EP3 antagonist effect (EP3): 50%
- EP4 antagonist effect (EP4): 56%
- TRPV1 antagonist effect (TRPV1): 65%
- TRPM8 antagonist effect (TRPM8): 91%
